{"source": "patent US5885994A", "about": "“Tetrahydroquinoxaline dopamine D4 receptor antagonists” (Warner-Lambert Company, priority 1998, dated 1999)", "key": {"[1]": {"target": "T1, human DA D4.2 receptor (Homo sapiens, UniProt P21917, DEL265-296)", "T1 construct": "expressed in transfected cells", "T1 sequence (P21917 with tags, fused parts or gaps DEL265-296)": "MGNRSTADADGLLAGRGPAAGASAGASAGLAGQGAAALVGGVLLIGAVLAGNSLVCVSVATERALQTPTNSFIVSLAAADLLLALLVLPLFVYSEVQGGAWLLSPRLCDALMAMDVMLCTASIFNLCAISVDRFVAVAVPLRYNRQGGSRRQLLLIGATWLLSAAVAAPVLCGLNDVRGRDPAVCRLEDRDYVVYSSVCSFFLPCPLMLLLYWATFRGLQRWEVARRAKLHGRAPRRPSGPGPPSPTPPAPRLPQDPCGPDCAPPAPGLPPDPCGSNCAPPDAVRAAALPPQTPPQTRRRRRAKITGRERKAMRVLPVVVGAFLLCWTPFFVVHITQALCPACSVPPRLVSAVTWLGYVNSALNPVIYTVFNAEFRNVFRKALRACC", "test": "[3H]Thymidine uptake assay (block of quinpirole stimulation in CHO pro-5 cells transfected with human DA D4.2 receptor)", "assay_type": "cell-based", "conditions": "human D4.2, quinpirole-stimulated uptake", "experimental": "Compounds were tested for their ability to bind to dopamine (DA) receptors as measured by their inhibition of [^3 H]spiperone binding to the human D2, and D4.2 receptors (Pugsley, et al., 1995). The ability of test compounds to block the stimulation of [^3 H]thymidine uptake in CHO pro-5 cells transfected with human DA D4.2 receptor cDNA caused by the DA agonist quinpirole was employed as an in vitro measure of DA receptor antagonist activity (Pugsley, et al., 1995). The effects of compounds on synthesis rates of rat brain catecholamines were estimated by measuring the accumulation of [3-(3,4-dihydroxyphenyl)-L-alanine (DOPA) after administration of the L-aromatic amino acid decarboxylase inhibitor, NSD 1015 (Pugsley, et al., 1995).\n[^3 H]Thymidine Uptake Assay\nThe effects of test compounds on [^3 H]thymidine uptake were carried out essentially as described by Pugsley, et al., 1995. CHO p-5 cells transfected with human D4.2 cDNA were seeded into 96-well plates at a density of about 5000 cells/well and were grown at 37° C. in a minimum essential medium (aMEM, Gibco) with 10% calf serum for 2 days. The wells were then rinsed three times with serum-free media. Fresh media ([…]) was added along with […] of test compound in water or vehicle alone. Eight wells of each plate received […] of aMEM with 10% fetal calf serum. After culture for 16 to 17 hours, [3H]thymidine ([…]) was added for 4 hours. The cells were trypsinized and harvested onto filter mats with a 96-well Brandel cell harvester. The filters were counted in a Beta-Plate scintillation counter."}, "[2]": {"tested_on": "apomorphine-induced disruption of prepulse inhibition", "test": "Prepulse inhibition of acoustic startle model in rats", "assay_type": "in vivo", "conditions": "rat, 30 mg/kg IP", "from_the_text": "PROTOCOL FOR THE PREPULSE INHIBITION OF ACOUSTIC STARTLE MODEL IN RATS\nPrepulse inhibition (PPI) of acoustic startle is a form of sensorimotor gating which occurs when a weak stimulus precedes a startling stimulus, resulting in diminution of the startle response amplitude. […] Thus, an animal model utilizing this phenomenon would be quite useful in the study of known and potential antipsychotic agents.\nThis indicates a possible role of DA D2-like receptor stimulation in reducing sensorimotor gating in the rat.\nMale Sprague-Dawley rats from Harlan Labs (180-280 g) were housed in groups of five rats per cage and maintained on a 12-hour light/dark cycle with free access to food pellets and water. […]\nEight startle chambers (SR-LAB, San Diego Instruments) were used, each consisting of a Plexiglas cylinder resting on a Plexiglas frame within a ventilated sound-attenuating enclosure. […] The average responses during the 100 msec record window (100×1 msec readings) were recorded by microcomputer and interface assembly (San Diego Instruments). […] Sound levels were assessed with a Radio Shack dB meter. […]\nThe test session in all experiments consisted of a total of 90 trials after a 5-minute test acclimation period of 70 dB white noise. […] When the prepulse was paired with the 120 dB pulse, no obvious acoustic difference could be detected by the human ear as compared to the 120 dB pulse alone. […]"}}, "data": [{"smiles": "Cc1ccc(N2CCN(Cc3ccc4c(c3)NCCN4)CC2)cc1C", "note": "[Example 2, 6-[4-(3,4-Dimethylphenyl)piperazin-1-ylmethyl]-1,2,3,4-tetrahydroquinoxaline]", "values": [{"measurement": "IC50", "setting": "[1]", "result": 1.6, "unit": "nM"}, {"measurement": "blockade of apomorphine-induced disruption of prepulse inhibition in the Acoustic Startle test", "setting": "[2]", "result": "significant blockade"}]}]}
